# Reference: patent US20050256178A1, “Novel nutraceutical compositions comprising boitin” (priority 2002, published 2005)
# Assays:
# [1] = test system: catalytic subunit of glucose-6-phosphatase; assay: Affymetrix GeneChip expression of glucose-6-phosphatase catalytic subunit in H-4-II-E rat liver cells; assay type: cell-based; details: H-4-II-E cells, 24 h; 50 μM EGCG, 1 μM biotin, 50 μM cysteamin; Affymetrix Id 1370725_a_at; triplicate
# Description: The Affymetrix GeneChip® high-density oligonucleotide microarray approach was chosen to determine the global gene expression in H-4-II-E rat liver cells.
# H-4-II-E rat liver cells were obtained from the American Type Culture Collection (ATCC) and cultured in Medium 199 (Invitrogen) Basel, Switzerland) supplemented with 10% fetal calf serum in a humidified 5% CO2 atmosphere at 37° C. Cells were regularly passaged at subconfluence and used at low passage numbers. For the final assays, cells were trypsinized, seeded at a density of 1×10^6 cells/well in 6-well cell culture plates and maintained in Medium 199 & 0.1% BSA (Invitrogen) for another 6 h before compounds were applied. EGCG was applied in DMSO; cysteamin was first solved in 1M HCl and then applied to the stimulation medium, biotin was directly dissolved into the medium. After 24 h treatment, total RNA was harvested.
# A total number of 24 samples were prepared following the Affymetrix GeneChip® array protocol (Affymetrix, Santa Clara, Calif., USA). Briefly, total cellular RNA was extracted by using Qiagen RNeasy Mini Kit with an on-column RNase-free DNase I digest (Qiagen, Basel, Switzerland). A T7-(T)24 primer (5′-[sequence] [sequence]-(dT)24-3′) was annealed to 10 kg of total RNA and Superscript II reverse transcriptase (400 U) was utilized to synthesize first-strand cDNA in the presence of DTT, dNTPs and 1× reaction buffer. Second strand synthesis was performed by adding E. coli DNA polymerase I (40 U), E. coli ligase (10 U) and RNase H (2 U) in a final reaction containing 1× second strand buffer in the presence of dNTPs. Finally strands were blunted using T4 DNA polymerase (10 U) (Superscript™ Microarray Customized Kit, Invitrogen, Basel, CH). cDNA was purified by phenol/chloroform extraction and subsequently in vitro transcription was carried out for 3 h using T7 RNA polymerase (Megascript™ T7 Kit, Ambion, Tex., USA), incorporating bio-16-UTPs and bio-11-CTPs (Roche Molecular Biochemicals, Penzberg, Germany). […]
# [2] = test system: C57BLKS/J db/db mice; assay: Glucose removal after oral glucose load (OGTT) in db/db mice, 5-week study; assay type: in vivo; details: for Glucose removal rate (% glucose decrease of control) 90 min / Glucose removal rate (% glucose decrease of control) 120 min / Glucose removal rate (% glucose decrease of control) 150 min / Glucose removal rate (% glucose decrease of control) 180 min: OGTT (1 g glucose/kg) in db/db mice after 4 weeks feed-ad-mix, biotin 8 mg/kg BW/day, phytanic acid 300 mg/kg BW/day; for Blood glucose levels during the glucose load compared to the control group: db/db mice, glucose load 1 g/kg, 90-180 min, biotin 8, phytanic acid 300 mg/kg BW/day
# Description: The efficacy of the combination of biotin and phytanic acid as well as of both compounds alone on glucose removal was tested in a 5-week study in C57BLKS/J db/db mice (n=7−8/group). This model of late type 2 diabetes with severe hyperglycemia is widely used to determine the efficacy of anti-diabetic compounds.
# Male db/db mice were obtained from Jackson Laboratory (Bar Harbor, Me., USA). Adult mice aged 8 weeks were used in the experiment. Mice were housed individually in plastic cages with bedding and allowed free access to standard rodent food and tap water. The animal rooms were controlled for temperature (24° C.), humidity (55%), and light (12-h light-dark cycle). The animals were randomized into four groups. Biotin and phytanic acid were administered as feed-ad-mix. Corn oil (1% of diet) served as a carrier substance for biotin and phytanic acid as well as a placebo when used alone. Group 1 received placebo, group 2 received biotin at a dose of 8 mg/kg body weight (BW)/day, group 3 received phytanic acid at a dose of 300 mg/kg BW/day, and group 4 received the combination of biotin and phytanic acid at a doses of 8 and 300 mg/kg BW/day, respectively. After 4 weeks of treatment glucose removal was assessed 90, 120, 150 and 180 minutes after an oral glucose load (1 g/kg body weight). Blood samples were obtained 90, 120, 150, 180 minutes from the tail vein for determination of blood glucose levels. Blood glucose was measured by a glucose analyzer (Glucotrend Premium, Roche Diagnostics, Rotkreuz, Switzerland). All data are expressed as means for animals in each diet group. Statistical significance of the mean differences between dietary groups was tested by one-way analysis of variance (ANOVA). If significant differences were found, the Dunnett's test for multiple comparison was used to compare each group to the control group. P values less than 0.05 were considered significant. All analyses were performed with Statistica (ver. 5.5A, StatSoft, Inc).
# GRR is defined as the speed at which glucose is removed from blood and directed to the peripheral tissues. At 90, 120, 150 and 180 minutes after application of the glucose load blood glucose levels in animals treated with the combination of biotin and phytanic acid decreased to a greater extent than excepted by the decrease due to monotherapy with biotin or phytanic acid. […] To evaluate the GRR the glucose levels were expressed as the percent change of glucose levels for each group compared to the control group. The expected GRR is defined as the sum of the GRR exerted by biotin and by phytanic acid when used as a monotherapy.
# [3] = test system: pre-adipocyte cells; assay: Differentiation of pre-adipocyte cells into mature adipocytes; assay type: cell-based; details: compared to the specific PPAR-γ agonist ciglitazone
# From the text: (§1) Therefore, intake of phytanic acid helps to improve insulin sensitivity and may act as a preventative measure against type 2 diabetes and Syndrome X through activation of PPARs and RXR.
# [4] = test system: rat primary hepatocytes; assay: Glucose uptake in rat primary hepatocytes; assay type: cell-based; details: about 10 to about 100 μM
# From the text: as §1
# [5] = test system: streptozotocin-diabetic rats (IDDM); assay: Oral glucose tolerance in streptozotocin-diabetic rats; assay type: in vivo; details: biotin orally (2-16 mg/day) or parentally (0.1 mg/day)
# From the text: (§2) Biotin: Biotin supplementation enhances hepatic glucose clearance which results in a decrease of circulating glucose concentration and induces decrease in the hepatic PEPCK activity. PEPCK is a rate-limiting cytosolic enzyme that catalyses the first committed step of hepatic gluconeogenesis. Decrease of hepatic PEPCK activity results in a decrease in liver glucose output.
# [6] = test system: pre-diabetic Otsuka Long-Evans Tokushima fatty (OLETF) rats (NIDDM); assay: Oral glucose tolerance in pre-diabetic OLETF rats; assay type: in vivo; details: biotin orally (2-16 mg/day) or parentally (0.1 mg/day)
# From the text: as §2
# [7] = test system: diabetic KK mice (NIDDM model); assay: Oral glucose tolerance in diabetic KK mice; assay type: in vivo; details: biotin orally (2-16 mg/day) or parentally (0.1 mg/day)
# From the text: as §2
# [8] = test system: type 1 and type 2 diabetic patients; assay: Preliminary human studies, fasting blood glucose after biotin supplementation; assay type: in vivo
# From the text: as §2
smiles,measurement,setting,value
"O=C(O[C@@H]1Cc2c(O)cc(O)cc2O[C@@H]1c1cc(O)c(O)c(O)c1)c1cc(O)c(O)c(O)c1 [EGCG, Epigallocatechin gallate]",MeanAvgDiff (Mean Relative Expression) of glucose-6-phosphatase catalytic subunit,[1],484.8
"NCCS [Cysteamin, cysteamine]",MeanAvgDiff (Mean Relative Expression) of glucose-6-phosphatase catalytic subunit,[1],447.42
"CC(C)CCCC(C)CCCC(C)CCCC(C)CC(=O)O (stereo not shown) [Phytanic acid, 3,7,11,15-tetramethylhexadecanoic acid]",Glucose removal rate (% glucose decrease of control) 90 min,[2],9.7%
same,Glucose removal rate (% glucose decrease of control) 120 min,[2],12.5%
same,Glucose removal rate (% glucose decrease of control) 150 min,[2],14.6%
same,Glucose removal rate (% glucose decrease of control) 180 min,[2],15.2%
same,Blood glucose levels during the glucose load compared to the control group,[2],Neither biotin nor phytanic acid caused a significant decrease
same,Effects on differentiation of pre-adipocyte cells into mature adipocytes,[3],only minor effects
same,Uptake of glucose,[4],enhances uptake of glucose
O=C(O)CCCC[C@@H]1SC[C@@H]2NC(=O)N[C@@H]21 [Biotin],Glucose removal rate (% glucose decrease of control) 90 min,[2],11.6%
same,Glucose removal rate (% glucose decrease of control) 120 min,[2],10.2%
same,Glucose removal rate (% glucose decrease of control) 150 min,[2],15.3%
same,Glucose removal rate (% glucose decrease of control) 180 min,[2],15.0%
same,Blood glucose levels during the glucose load compared to the control group,[2],Neither biotin nor phytanic acid caused a significant decrease
same,MeanAvgDiff (Mean Relative Expression) of glucose-6-phosphatase catalytic subunit,[1],516.66
same,Oral glucose tolerance,[5],improved oral glucose tolerance
same,Oral glucose tolerance,[6],improved oral glucose tolerance
same,Oral glucose tolerance,[7],improved oral glucose tolerance
same,Fasting blood glucose levels,[8],decreased
